Assay results taken from US10368545B2, “Substituted 2-thioimidazolylcarboxamides as pesticides” (BAYER CROPSCIENCE AKTIENGESELLSCHAFT, priority 2015, dated 2019).

Legend:
[1] = test system: green peach aphid (Myzus persicae); experiment: Contrasting example: Myzus persicae spray test (MYZUPE); format: in vivo; settings: MYZUPE, 100 g ai/ha, 6 dat; for pest or weed control at 100 g/ha: Myzus persicae, 144 h, read-out: % efficacy
Experimental: Myzus persicae—Spray Test (MYZUPE)
(§1) Solvents: 78.0 parts by weight of acetone • • 1.5 parts by weight of dimethylformamide
(§2) Emulsifier: alkylaryl polyglycol ether
(§3) To produce a suitable active compound preparation, 1 part by weight of active compound is dissolved using the stated parts by weight of solvent and made up with water containing an emulsifier concentration of 1000 ppm until the desired concentration is attained. To produce further test concentrations, the preparation is diluted with emulsifier-containing water.
Discs of Chinese cabbage leaves (Brassica pekinensis), infested by all stages of the green peach aphid (Myzus persicae) are sprayed with an active compound preparation of the desired concentration.
After the desired period of time, the efficacy in % is determined. 100% means that all aphids were killed; 0% means that no aphids were killed.

[2] = test system: greenhouse red spider mite (Tetranychus urticae); experiment: Contrasting example: Tetranychus urticae spray test, OP resistant (TETRUR); format: in vivo; settings: 500 g ai/ha, 6 dat
Experimental: Tetranychus urticae—Spray Test; OP Resistant (TETRUR)
as §1, §2, §3
Discs of bean leaves (Phaseolus vulgaris), infested by all stages of the greenhouse red spider mite (Tetranychus urticae) are sprayed with an active compound preparation of the desired concentration.
After the desired period of time, the efficacy in % is determined. 100% means that all spider mites were killed; 0% means that no spider mites were killed.

[3] = test system: larvae of the mustard beetle (Phaedon cochleariae); experiment: Contrasting example: Phaedon cochleariae spray test (PHAECO); format: in vivo; settings: 500 g ai/ha, 7 dat
Experimental: Phaedon cochleariae—Spray Test (PHAECO)
as §1, §2, §3
After the desired period of time, the efficacy in % is determined. 100% means that all beetle larvae were killed; 0% means that no beetle larvae were killed.

[4] = log P by HPLC on reversed-phase C18 columns (OECD Guideline 117); format: physicochemical; settings: for logP[a]: method [a]; for logP[b]: method [b]
Outline: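 Reversed-phase C18 HPLC per OECD 117, LC-MS with a linear 10% to 95% acetonitrile gradient. Acidic method at pH 2.7 with 0.1% formic acid; neutral method at pH 7.8 with 0.001 M ammonium hydrogencarbonate.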

[5] = test system: green peach aphid (Myzus persicae); experiment: Myzus persicae spray test (bell pepper plants); format: in vivo; settings: after 6 days
Experimental: Myzus persicae—Spray Test
Solvent: 14 parts by weight of dimethylformamide
as §2
as §3, with “water. If the addition of ammonium salts and/or penetrants is required, these are each added in a concentration of 1000 ppm to the formulation solution.” for “water.”
Bell pepper plants (Capsicum annuum) severely infested with the green peach aphid (Myzus persicae) are treated by spraying with the active compound preparation in the desired concentration.
After 6 days, the kill in % is determined. 100% means that all of the aphids have been killed; 0% means that none of the aphids have been killed.

[6] = test system: green peach aphid (Myzus persicae); experiment: Myzus persicae spray test (Chinese cabbage leaf discs); format: in vivo; settings: after 5 or 6 days, Chinese cabbage leaf discs
Outline: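 Compound is taken up in acetone/DMF and made up with emulsifier-containing water (1000 ppm), then sprayed onto aphid-infested cabbage leaf discs. After 5 or 6 days, percent kill is determined (100% = all dead, 0% = none).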

[7] = test system: greenhouse red spider mite (Tetranychus urticae); experiment: Tetranychus urticae spray test, OP-resistant (bean leaf discs); format: in vivo; settings: application rate 500 g/ha, after 6 days
Experimental: Tetranychus urticae—Spray Test, OP-Resistant
Solvent: 78.0 parts by weight of acetone • • 1.5 parts by weight of dimethylformamide
as §2, §3
Discs of bean leaves (Phaseolus vulgaris) infested with all stages of the greenhouse red spider mite (Tetranychus urticae) are sprayed with an active compound preparation of the desired concentration.
After 6 days, the efficacy in % is determined. 100% means that all the spider mites had been killed; 0% means that no spider mites had been killed.

[8] = test system: southern root-knot nematode (Meloidogyne incognita); experiment: Meloidogyne incognita test (gall formation on lettuce); format: in vivo; settings: application rate 20 ppm; after 14 days
Experimental: Meloidogyne incognita Test
Solvent: 125.0 parts by weight of acetone
To produce a suitable preparation of active compound, 1 part by weight of active compound is mixed with the stated amount of solvent and the concentrate is diluted with water to the desired concentration.
Vessels are filled with sand, active compound solution, an egg/larvae suspension of the southern root-knot nematode (Meloidogyne incognita) and lettuce seeds. The lettuce seeds germinate and the plants develop. The galls develop on the roots.
After 14 days, the nematicidal efficacy in % is determined by the formation of galls. 100% means that no galls were found; 0% meant that the number of galls on the treated plants corresponds to the untreated control.

[9] = test system: larvae of the mustard beetle (Phaedon cochleariae); experiment: Phaedon cochleariae spray test (Chinese cabbage leaf discs); format: in vivo; settings: application rate 500 g/ha, after 7 days
Experimental: Phaedon cochleariae—Spray Test
as §1, §2, §3
After 7 days, the efficacy in % is determined. 100% means that all beetle larvae were killed; 0% means that no beetle larvae were killed.

logP[a] [4]	logP[b] [4]	Compound	efficacy (kill of aphids) ([5]; application rate 20 ppm) [%]	% efficacy [1] [%]	also measured
1.68	1.91	CN(C(=O)c1cnc(SCc2ccccc2)n1C)c1cccnc1 [I-A-7]		70	nematicidal efficacy (formation of galls) [8]: 90%; efficacy (aphids killed) ([6]; application rate 500 g/ha): 90%
2.02	2.14	CN(C(=O)c1cnc(Sc2ccc(Cl)cc2)n1C)c1cccnc1 [I-A-57]	99		
1.97	2.11	CN(C(=O)c1cnc(Sc2cccc(Cl)c2)n1C)c1cccnc1 [I-A-66]			efficacy (kill of aphids) ([5]; application rate 100 ppm): 99%
2.16	2.29	CN(C(=O)c1cnc([S+]([O-])c2ccc(Cl)c(C(F)(F)F)c2)n1C)c1cccnc1 (stereo not shown) [I-A-79]			efficacy (aphids killed) ([6]; application rate 500 g/ha): 90%; efficacy (beetle larvae killed) [9]: 100%; % efficacy [3]: 100%
1.20	1.38	CN(C(=O)c1cnc([S+]([O-])c2ccc([N+](=O)[O-])cc2)n1C)c1cccnc1 (stereo not shown) [I-A-89]	99	70	
1.12	1.28	COc1ccc([S+]([O-])c2ncc(C(=O)N(C)c3cccnc3)n2C)cc1 (stereo not shown) [I-A-93]	95	70	

More lines, now with the values behind:

Compound	logP[a] [4]	logP[b] [4]	efficacy (kill of aphids) ([5]; application rate 20 ppm) [%]	% efficacy [1] [%]	also measured
O=C(Nc1cccnc1)c1c[nH]cn1 [Example 13]					pest or weed control at 100 g/ha [1]: 0%; % efficacy [2]: 0%; % efficacy [3]: 0%
Cc1nc(C(=O)Nc2cccnc2)c[nH]1 [Example 14]					pest or weed control at 100 g/ha [1]: 0%; % efficacy [2]: 0%; % efficacy [3]: 0%
Cc1cc(C)nc(Sc2ncc(C(=O)Nc3cccnc3)n2C)n1 [I-A-4]	1.55	1.97	99	70	
CCCCCSc1ncc(C(=O)N(C)c2cccnc2)n1C [I-A-6]	2.03	2.33		90	efficacy (aphids killed) ([6]; application rate 500 g/ha): 90%; efficacy (spider mites killed) [7]: 90%; % efficacy [2]: 90%
CN(C(=O)c1c(Cl)nc(Sc2ncccn2)n1C)c1cccnc1 [I-A-15]	1.24	1.34			efficacy (beetle larvae killed) [9]: 83%; % efficacy [3]: 83%
COCCCSc1ncc(C(=O)N(C)c2cccnc2)n1C [I-A-20]	1.04	1.35	99		
CC(C)=CCSc1ncc(C(=O)N(C)c2cccnc2)n1C [I-A-35]	1.61	1.96			nematicidal efficacy (formation of galls) [8]: 90%
CCN(C(=O)c1cnc(SC)n1C)c1cccnc1 [I-A-44]	0.80	1.30	100		
CN(C(=O)c1cnc(S(=O)(=O)c2cc(Cl)cc(Cl)c2)n1C)c1cccnc1 [I-A-78]	2.37	2.53		90	efficacy (aphids killed) ([6]; application rate 100 g/ha): 90%; efficacy (spider mites killed) [7]: 90%; % efficacy [2]: 90%
CN(C(=O)c1cnc(S(=O)(=O)c2ccc(Cl)c(C(F)(F)F)c2)n1C)c1cccnc1 [I-A-80]	2.56	2.72			efficacy (beetle larvae killed) [9]: 100%; % efficacy [3]: 100%
CN(C(=O)c1cnc(S(=O)(=O)c2ncccn2)n1C)c1cccnc1 [I-A-99]	0.66	0.87	100	70	
CN(C(=O)c1cnc(Sc2ncc(C(F)(F)F)cn2)n1C)c1cccnc1 [I-A-105]	1.64	1.73		100	efficacy (aphids killed) ([6]; application rate 500 g/ha): 100%; efficacy (spider mites killed) [7]: 90%; % efficacy [2]: 90%
